Data as given in patent US20070082339A1, “Methods and compositions for screening for HDAC inhibitory activity” (priority 2005, published 2007).

Test system: A549 cells
Assay: Microarray analysis of gene expression after LAQ824 treatment
Assay type: cell-based, human
Conditions: for Fold change AMP-activated protein kinase family member 5 (ARK5) 204589_at / Fold change ANP32B acidic (leucine-rich) nuclear phosphoprotein 32 family, member B (SSP29) 201305_x_at / Fold change AVEN apoptosis, caspase activation inhibitor (Aven) 219366_at / Fold change B-cell CLL/lymphoma 3 (BCL3) 204908_s_at / Fold change BAI1-associated protein 2 (BAP2, IRSp53) 205293_x_at / Fold change BAI1-associated protein 3 (BAP3, KIAA0734) 204874_x_at / Fold change BAI1-associated protein 3 (BAP3, KIAA0734) 216356_x_at / Fold change BCL2-associated athanogene 2 (BAG-2) 209406_at / Fold change BCL2-interacting killer (apoptosis-inducing) (BP4, NBK, BIP1) 205780_at / Fold change BCL2-like 1 (BCL2L1) 206665_s_at / Fold change BH3 interacting domain death agonist (BID) 204493_at / Fold change Cyclin A2 (CCN1, CCNA) 203418_at / Fold change Cyclin-dependent kinase inhibitor 2D (p19, inhibits CDK4) (INK4D) 210240_s_at / Fold change DEC1-anti apoptosis (BHLHB2) 201169_s_at / Fold change Diphtheria toxin receptor (heparin-binding epidermal growth factor-like growth factor) (DTR) 203821_at / Fold change Early growth response 1 (TIS8, NGFI-A, KROX-24, ZIF-268) 201694_s_at / Fold change GMCL germ cell-less homolog (Drosophila) (GMCL) 218458_at / Fold change Katanin p80 (WD40-containing) subunit B 1 (KAT) 203163_at / Fold change NACHT, leucine rich repeat and PYD containing 1 (PP1044) 218380_at / Fold change Paternally expressed Gene 10 (PEG10) 212092_at / Fold change Paternally expressed Gene 10 (PEG10) 212094_at / Fold change Protein regulator of cytokinesis 1 (PRC1) 218009_s_at / Fold change SKAP55 protein 216899_s_at / Fold change Secreted frizzled-related protein 1 (FRP, SARP2) 202036_s_at / Fold change Secreted frizzled-related protein 1 (FRP, SARP2) 202037_s_at / Fold change Serine/threonine kinase 6 (AIK) 208079_s_at / Fold change Tribbles homolog 3a (TRIB3) 218145_at / Fold change Tumor necrosis factor receptor superfamily, member 6 (TNFRSF6) 215719_x_at / Fold change Tumor necrosis factor receptor superfamily, member 6 (TNFRSF6) 216252_x_at / Fold change Tumor protein p53 (Li-Fraumeni syndrome) 201746_at / Fold change Tumor protein p53 (Li-Fraumeni syndrome) 211300_s_at / Fold change member of the N-myc downregulated gene family (NDRG4) 209159_s_at: A549, 500 nM vs DMSO
Procedure: The human lung carcinoma cell line A549 is obtained from the American Type Culture Collection (Rockville, Md.) and cultured in F-12K (ATCC, Manassas, Va.), 10% fetal bovine serum, and 1% penicillin/streptomycin (Life Technologies, Inc.). LAQ824 (Novartis) is added directly to the cell medium at a final concentration of 500 nM. Microarray analysis is performed essentially as described previously (Welsh, 2001). Total RNA is prepared from A549 cells treated with LAQ 824 or DMSO for 0.5, 2, 6, 12 and 24 h. Labelled cDNA is prepared and hybridized to Affymetrix U133 oligonucleotide GeneChip® (Affymetrix, Santa Clara, Calif.). The arrays were scanned on an Affymetrix GeneArray scanner and analyzed with GENECHIP Microarray Analysis Suite 5.0 software (MAS5) (Affymetrix). The data (raw data including image files and scanner files (Cel. Files) as well as the MAS5 normalized data are stored in the DEMON Database. The MAS5 normalized data are exported from the database and analyzed using GeneSpring software version 6.1. The genes are filtered for a minimal expression of 100 in at least one condition (the condition being defined as the average the value for the 3 samples corresponding to a given time point and a treatement) The gene expression changes (fold change) are calculated for each time point (t) as follow: (Gene expression level LAQ824 treated—(Average of the 3 replicates) Time (t))/(Gene expression level DMSO treated—(Average of the 3 replicates) Time (t)).
Any fold change <0 indicated a down regulation or reduction of the mRNA production, any fold change >0 indicated an up regulation or increase of mRNA production. Genes are filtered according to the fold change and the statistical significance of the changes (1-way-ANOVA test p<0.05)).

O=C(/C=C/c1ccc(CN(CCO)CCc2c[nH]c3ccccc23)cc1)NO [LAQ824, N-Hydroxy-3-[4-[[(2-hydroxyethyl)[2-(1H-indol-3-yl)-ethyl]-amino]methyl]phenyl]-2E-2-propenamide]
Fold change AMP-activated protein kinase family member 5 (ARK5) 204589_at (12 h): −4.6 fold | Fold change ANP32B acidic (leucine-rich) nuclear phosphoprotein 32 family, member B (SSP29) 201305_x_at (12 h): −5.1 fold | Fold change AVEN apoptosis, caspase activation inhibitor (Aven) 219366_at (12 h): −2.6 fold | Fold change B-cell CLL/lymphoma 3 (BCL3) 204908_s_at (12 h): −5.5 fold | Fold change BAI1-associated protein 2 (BAP2, IRSp53) 205293_x_at (12 h): 6.8 fold | Fold change BAI1-associated protein 3 (BAP3, KIAA0734) 204874_x_at (12 h): 15.9 fold | Fold change BAI1-associated protein 3 (BAP3, KIAA0734) 216356_x_at (12 h): 27.9 fold | Fold change BCL2-associated athanogene 2 (BAG-2) 209406_at (12 h): −3.3 fold | Fold change BCL2-interacting killer (apoptosis-inducing) (BP4, NBK, BIP1) 205780_at (12 h): 12.0 fold | Fold change BCL2-like 1 (BCL2L1) 206665_s_at (12 h): −7.6 fold | Fold change BH3 interacting domain death agonist (BID) 204493_at (12 h): −3.6 fold | Fold change Cyclin A2 (CCN1, CCNA) 203418_at (12 h): −2.3 fold | Fold change Cyclin-dependent kinase inhibitor 2D (p19, inhibits CDK4) (INK4D) 210240_s_at (12 h): 4.8 fold | Fold change DEC1-anti apoptosis (BHLHB2) 201169_s_at (12 h): −4.8 fold | Fold change Diphtheria toxin receptor (heparin-binding epidermal growth factor-like growth factor) (DTR) 203821_at (12 h): 13.1 fold | Fold change Early growth response 1 (TIS8, NGFI-A, KROX-24, ZIF-268) 201694_s_at (12 h): 11.2 fold | Fold change GMCL germ cell-less homolog (Drosophila) (GMCL) 218458_at (12 h): 3.8 fold | Fold change Katanin p80 (WD40-containing) subunit B 1 (KAT) 203163_at (12 h): 4.3 fold | Fold change NACHT, leucine rich repeat and PYD containing 1 (PP1044) 218380_at (12 h): 11.3 fold | Fold change Paternally expressed Gene 10 (PEG10) 212092_at (12 h): 3.8 fold | Fold change Paternally expressed Gene 10 (PEG10) 212094_at (12 h): 3.5 fold | Fold change Protein regulator of cytokinesis 1 (PRC1) 218009_s_at (12 h): −2.5 fold | Fold change SKAP55 protein 216899_s_at (12 h): 1.8 fold | Fold change Secreted frizzled-related protein 1 (FRP, SARP2) 202036_s_at (12 h): 3.9 fold | Fold change Secreted frizzled-related protein 1 (FRP, SARP2) 202037_s_at (12 h): 3.9 fold | Fold change Serine/threonine kinase 6 (AIK) 208079_s_at (12 h): −2.4 fold | Fold change Tribbles homolog 3a (TRIB3) 218145_at (12 h): −4.0 fold | Fold change Tumor necrosis factor receptor superfamily, member 6 (TNFRSF6) 215719_x_at (12 h): −6.3 fold | Fold change Tumor necrosis factor receptor superfamily, member 6 (TNFRSF6) 216252_x_at (12 h): −4.9 fold | Fold change Tumor protein p53 (Li-Fraumeni syndrome) 201746_at (12 h): −4.4 fold | Fold change Tumor protein p53 (Li-Fraumeni syndrome) 211300_s_at (12 h): −3.7 fold | Fold change member of the N-myc downregulated gene family (NDRG4) 209159_s_at (12 h): 7.3 fold | Fold change AMP-activated protein kinase family member 5 (ARK5) 204589_at (24 h): −1.9 fold | Fold change ANP32B acidic (leucine-rich) nuclear phosphoprotein 32 family, member B (SSP29) 201305_x_at (24 h): −7.3 fold | Fold change AVEN apoptosis, caspase activation inhibitor (Aven) 219366_at (24 h): −8.2 fold | Fold change B-cell CLL/lymphoma 3 (BCL3) 204908_s_at (24 h): −1.8 fold | Fold change BAI1-associated protein 2 (BAP2, IRSp53) 205293_x_at (24 h): 3.6 fold | Fold change BAI1-associated protein 3 (BAP3, KIAA0734) 204874_x_at (24 h): 10.9 fold | Fold change BAI1-associated protein 3 (BAP3, KIAA0734) 216356_x_at (24 h): 19.2 fold | Fold change BCL2-associated athanogene 2 (BAG-2) 209406_at (24 h): −4.4 fold | Fold change BCL2-interacting killer (apoptosis-inducing) (BP4, NBK, BIP1) 205780_at (24 h): 15.5 fold | Fold change BCL2-like 1 (BCL2L1) 206665_s_at (24 h): −2.0 fold | Fold change BH3 interacting domain death agonist (BID) 204493_at (24 h): −4.6 fold | Fold change Cyclin A2 (CCN1, CCNA) 203418_at (24 h): −13.3 fold | Fold change Cyclin-dependent kinase inhibitor 2D (p19, inhibits CDK4) (INK4D) 210240_s_at (24 h): 2.0 fold | Fold change DEC1-anti apoptosis (BHLHB2) 201169_s_at (24 h): −1.9 fold | Fold change Diphtheria toxin receptor (heparin-binding epidermal growth factor-like growth factor) (DTR) 203821_at (24 h): 3.2 fold | Fold change Early growth response 1 (TIS8, NGFI-A, KROX-24, ZIF-268) 201694_s_at (24 h): 4.6 fold | Fold change GMCL germ cell-less homolog (Drosophila) (GMCL) 218458_at (24 h): 2.3 fold | Fold change Katanin p80 (WD40-containing) subunit B 1 (KAT) 203163_at (24 h): 2.9 fold | Fold change NACHT, leucine rich repeat and PYD containing 1 (PP1044) 218380_at (24 h): 22.7 fold | Fold change Paternally expressed Gene 10 (PEG10) 212092_at (24 h): 7.0 fold | Fold change Paternally expressed Gene 10 (PEG10) 212094_at (24 h): 6.5 fold | Fold change Protein regulator of cytokinesis 1 (PRC1) 218009_s_at (24 h): −5.1 fold | Fold change SKAP55 protein 216899_s_at (24 h): 4.0 fold | Fold change Secreted frizzled-related protein 1 (FRP, SARP2) 202036_s_at (24 h): 4.5 fold | Fold change Secreted frizzled-related protein 1 (FRP, SARP2) 202037_s_at (24 h): 4.4 fold | Fold change Serine/threonine kinase 6 (AIK) 208079_s_at (24 h): −8.3 fold | Fold change Tribbles homolog 3a (TRIB3) 218145_at (24 h): −10.1 fold | Fold change Tumor necrosis factor receptor superfamily, member 6 (TNFRSF6) 215719_x_at (24 h): −4.8 fold | Fold change Tumor necrosis factor receptor superfamily, member 6 (TNFRSF6) 216252_x_at (24 h): −5.6 fold | Fold change Tumor protein p53 (Li-Fraumeni syndrome) 201746_at (24 h): −7.1 fold | Fold change Tumor protein p53 (Li-Fraumeni syndrome) 211300_s_at (24 h): −7.3 fold | Fold change member of the N-myc downregulated gene family (NDRG4) 209159_s_at (24 h): 4.5 fold | NF—Y gene expression in response to LAQ824 treatment (A549 cells, DNA microarray analysis): significantly up-regulated
